Columns and labels:
armyworm = experiment: bioactivity test against armyworm, airbrush spray; format: in vivo; details: 72 h, 600 mg/L; read-out: Insecticidal activity against armyworm (%)
corn rust = experiment: protectant activity in vivo against corn rust; details: Zea mays, 168 h, protectant activity; for pest or weed control at 400 µg/mL: read-out: control effect against corn rust (%), 400 mg/L; for pest or weed control at 6.25 µg/mL: read-out: control effect against corn rust (%), 6.25 mg/L; for pest or weed control at 25 µg/mL: read-out: control effect against corn rust (%), 25 mg/L; for pest or weed control at 100 µg/mL: read-out: control effect against corn rust (%), 100 mg/L
[1] = system: Green peach aphids (Myzus Persicae Sulzer); experiment: bioactivity test against green peach aphid, airbrush foliar spray; format: in vivo; details: Myzus persicae, foliar, 48 h, contrastive test, read-out: Insecticidal activity against peach aphid (%); for pest or weed control at 600 µg/mL: 600 mg/L; for pest or weed control at 10 µg/mL: 10 mg/L; for pest or weed control at 100 µg/mL: 100 mg/L
Summary of the method: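 Death rate was scored at 48 hrs, held at 25±1 C and 60±5% RH, following airbrush foliar spray (0.5 mL, 10 psi) onto cabbage leaf discs bearing about 15-30 aphids. Test solutions: compound dissolved in 1:1 acetone:methanol, brought to concentration with 0.1% tween 80 water.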

carmine spider mite = experiment: bioactivity test against carmine spider mite, airbrush spray; format: in vivo; details: Tetranychus cinnabarinus, 72 h, contrastive test, read-out: Insecticidal activity against carmine spider mite (% ); for pest or weed control at 600 µg/mL: 600 mg/L; for pest or weed control at 10 µg/mL: 10 mg/L; for pest or weed control at 100 µg/mL: 100 mg/L
Summary of the method: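 Broadbean seedlings infested with adult mites were sprayed with compound (acetone/methanol stock diluted in 0.1% Tween 80 water) by airbrush at 0.7 kg/cm^2, 0.5 ml. Three replicates were run. Mortality was scored after 72 hrs.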

wheat powdery mildew = experiment: protectant activity in vivo against wheat powdery mildew; details: Triticum aestivum, 168 h, protectant activity; for pest or weed control at 400 µg/mL: read-out: control effect against wheat powdery mildew (%), 400 mg/L; for pest or weed control at 6.25 µg/mL: read-out: control effect against wheat powdery mildew (%), 6.25 mg/L; for pest or weed control at 25 µg/mL: read-out: control effect against wheat powdery mildew (%), 25 mg/L; for pest or weed control at 100 µg/mL: read-out: control effect against wheat powdery mildew (%), 100 mg/L
cucumber gray mold = experiment: fungicidal activity in vitro (inhibition rate) against cucumber gray mold; format: cell-based; details: 25 ppm, in vitro; read-out: inhibition rate against cucumber gray mold
Diamond back moth = experiment: insecticidal activity against diamond back moth, airbrush spray; format: in vivo; details: 72 h, 600 mg/L
Summary of the method: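 Airbrush leaf-disc spray test: both faces of 2 cm cabbage discs received 0.5 ml of test solution at 0.7 kg/cm^2. Solutions were made in acetone:methanol (1:1) and brought to concentration with 0.1% Tween 80 in water. Ten second-instar larvae per disc, triplicates, were held at 25° C and 60˜70% R.H., with mortality recorded at 72 hrs.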

cucumber downy mildew = experiment: protectant activity in vivo against cucumber downy mildew; details: Cucumis sativus, 168 h, protectant activity; for pest or weed control at 25 µg/mL: read-out: control effect against cucumber downy mildew (%), 25 mg/L; for pest or weed control at 50 µg/mL: read-out: control effect against cucumber downy mildew (%), 50 mg/L; for pest or weed control at 100 µg/mL: read-out: control effect against cucumber downy mildew (%), 100 mg/L; for pest or weed control at 400 µg/mL: read-out: control effect against cucumber downy mildew (%), 400 mg/L

SMILES | pest or weed control at 600 µg/mL (armyworm) | pest or weed control at 400 µg/mL (corn rust) | pest or weed control at 600 µg/mL [1] | pest or weed control at 600 µg/mL (carmine spider mite) | pest or weed control at 400 µg/mL (wheat powdery mildew) | inhibition at 25 ppm (cucumber gray mold) | pest or weed control at 600 µg/mL (Diamond back moth) | pest or weed control at 25 µg/mL (cucumber downy mildew) | pest or weed control at 50 µg/mL (cucumber downy mildew) | pest or weed control at 100 µg/mL (cucumber downy mildew) | pest or weed control at 400 µg/mL (cucumber downy mildew) | pest or weed control at 6.25 µg/mL (corn rust) | pest or weed control at 25 µg/mL (corn rust) | pest or weed control at 100 µg/mL (corn rust) | pest or weed control at 10 µg/mL [1] | pest or weed control at 100 µg/mL [1] | further results
CCc1ncnc(OCc2ccc(Oc3ccc(Cl)cc3)nc2)c1Cl [CK25, reference compound] | 0% | 0% | 0% | 0% | 0% | < 50% | 0% | 0% | 0% | 0% | 100% |  |  |  |  |  | 
N#Cc1ccc(Oc2ccc(CCNc3nc(Cl)ncc3Cl)cc2)nc1 [CK26, reference compound] | 0% | 100% | 100% | 0% | 70% | 0% | 0% | 0% | 40% | 60% | 100% | 0% | 0% | 0% | 45% | 48% | 
COC(=O)c1nc(Cl)nc(NC(C)c2ccc(Oc3ncc(C(F)(F)F)cc3Cl)cc2)c1Cl (stereo not shown) [CK34, reference compound] | 0% | 0% | 65% | 0% | 0% | 0% | 0% |  |  |  | 85% |  |  |  |  |  | 
Cc1ncnc(NCc2ccc(Oc3ccc(C(F)(F)F)cc3)cc2)c1Cl [CK53, reference compound] | 0% | 0% | 84% | 100% | 100% | 0% | 0% | 60% | 85% | 90% | 100% |  |  |  | 34% | 66% | pest or weed control at 10 µg/mL (carmine spider mite): 12%; pest or weed control at 100 µg/mL (carmine spider mite): 100%; pest or weed control at 6.25 µg/mL (wheat powdery mildew): 0%; pest or weed control at 25 µg/mL (wheat powdery mildew): 0%; pest or weed control at 100 µg/mL (wheat powdery mildew): 80%
FC(F)(F)c1cccnc1Oc1ccc(CCNc2nc(Cl)ncc2Cl)cc1 [CK81, reference compound] | 14% | 80% | 75% | 0% | 40% | 0% | 0% |  |  |  |  |  |  |  |  |  | 
FC(F)(F)c1cccnc1Oc1ccc(CCNc2cc(Cl)nc(Cl)n2)cc1 [CK82, reference compound] | 0% | 100% | 86% | 23% | 100% | 0% | 17% |  |  |  |  | 0% | 0% | 30% | 0% |  | pest or weed control at 6.25 µg/mL (wheat powdery mildew): 0%; pest or weed control at 25 µg/mL (wheat powdery mildew): 0%; pest or weed control at 100 µg/mL (wheat powdery mildew): 80%
Cc1nc(Cl)cc(NCCc2ccc(Oc3ccc(C#N)cn3)cc2)n1 [CK84, reference compound] | 0% | 100% | 100% | 100% |  | 0% | 0% | 85% | 100% | 100% | 100% | 0% | 60% | 90% | 7% | 43% | pest or weed control at 10 µg/mL (carmine spider mite): 0%; pest or weed control at 100 µg/mL (carmine spider mite): 0%

From patent US9770026B2, “Substituted pyrimidine compound and uses thereof” (Shenyang Sinochem Agrochemicals R&D Co., Ltd., priority 2012, dated 2017)
